{
  "source": "paper PMC12274840",
  "about": "(The Journal of Biological Chemistry, 2025)",
  "key": {"[1]": {"tested_on": "E. coli KA797 cells carrying BlaC position 105 library", "type": "cell-based, Escherichia coli", "conditions": "for Fi AVG (average fitness): average of replicates"}, "[2]": {"tested_on": "E. coli KA797 cells carrying pUK21 with BlaC WT (Tat)", "experiment": "microbe, parasite or virus in culture", "type": "cell-based", "conditions": "in combination with 100 μg/ml carbenicillin"}, "[3]": {"tested_on": "E. coli KA797 cells carrying pUK21 with CTX-M-14 WT (Tat)", "experiment": "microbe, parasite or virus in culture", "type": "cell-based", "conditions": "in combination with 100 μg/ml carbenicillin"}, "[4]": {"tested_on": "E. coli KA797 cells carrying pUK21 with TEM-1 WT (Sec)", "experiment": "microbe, parasite or virus in culture", "type": "cell-based", "conditions": "in combination with 100 μg/ml carbenicillin"}, "[5]": {"tested_on": "E. coli KA797 cells carrying pUK21 with NmcA (pelB/Sec)", "experiment": "microbe, parasite or virus in culture", "type": "cell-based", "conditions": "in combination with 25 μg/ml carbenicillin"}},
  "note": "Where two headings read alike, the source gives them in different places.",
  "data": [
    {"compound": "CC1(C)[C@H](C(=O)O)N2C(=O)C[C@H]2S1(=O)=O", "note": "[sulbactam]", "values": [
      {"measurement": "Fi AVG (average fitness)", "setting": "[1]; AA 105 Ala (BlaC I105A), relative to WT Ile", "value": -0.022},
      {"measurement": "Fi AVG (average fitness)", "setting": "[1]; AA 105 Arg (BlaC I105R), relative to WT Ile", "value": -0.000687},
      {"measurement": "Fi AVG (average fitness)", "setting": "[1]; AA 105 Asn (BlaC I105N), relative to WT Ile", "value": 0.167},
      {"measurement": "Fi AVG (average fitness)", "setting": "[1]; AA 105 Asp (BlaC I105D), relative to WT Ile", "value": -0.060},
      {"measurement": "Fi AVG (average fitness)", "setting": "[1]; AA 105 Cys (BlaC I105C), relative to WT Ile", "value": -0.004},
      {"measurement": "Fi AVG (average fitness)", "setting": "[1]; AA 105 Gln (BlaC I105Q), relative to WT Ile", "value": 0.070},
      {"measurement": "Fi AVG (average fitness)", "setting": "[1]; AA 105 Glu (BlaC I105E), relative to WT Ile", "value": 0.009},
      {"measurement": "Fi AVG (average fitness)", "setting": "[1]; AA 105 Gly (BlaC I105G), relative to WT Ile", "value": 0.023},
      {"measurement": "Fi AVG (average fitness)", "setting": "[1]; AA 105 His (BlaC I105H), relative to WT Ile", "value": 0.133},
      {"measurement": "Fi AVG (average fitness)", "setting": "[1]; AA 105 Ile (BlaC WT, reference)", "value": 0.000},
      {"measurement": "Fi AVG (average fitness)", "setting": "[1]; AA 105 Leu (BlaC I105L), relative to WT Ile", "value": 0.101},
      {"measurement": "Fi AVG (average fitness)", "setting": "[1]; AA 105 Lys (BlaC I105K), relative to WT Ile", "value": 0.043},
      {"measurement": "Fi AVG (average fitness)", "setting": "[1]; AA 105 Met (BlaC I105M), relative to WT Ile", "value": -0.015},
      {"measurement": "Fi AVG (average fitness)", "setting": "[1]; AA 105 Phe (BlaC I105F), relative to WT Ile", "value": 0.205},
      {"measurement": "Fi AVG (average fitness)", "setting": "[1]; AA 105 Pro (BlaC I105P), relative to WT Ile", "value": 0.056},
      {"measurement": "Fi AVG (average fitness)", "setting": "[1]; AA 105 Ser (BlaC I105S), relative to WT Ile", "value": 0.083},
      {"measurement": "Fi AVG (average fitness)", "setting": "[1]; AA 105 Thr (BlaC I105T), relative to WT Ile", "value": 0.012},
      {"measurement": "Fi AVG (average fitness)", "setting": "[1]; AA 105 Trp (BlaC I105W), relative to WT Ile", "value": 0.218},
      {"measurement": "Fi AVG (average fitness)", "setting": "[1]; AA 105 Tyr (BlaC I105Y), relative to WT Ile", "value": 0.087},
      {"measurement": "Fi AVG (average fitness)", "setting": "[1]; AA 105 Val (BlaC I105V), relative to WT Ile", "value": 0.121},
      {"measurement": "WT abs Fi 1", "setting": "[1]; absolute fitness of BlaC WT (Ile 105), replicate 1", "value": -0.251},
      {"measurement": "WT abs Fi 2", "setting": "[1]; absolute fitness of BlaC WT (Ile 105), replicate 2", "value": 0.228},
      {"measurement": "WT abs Fi 3", "setting": "[1]; absolute fitness of BlaC WT (Ile 105), replicate 3", "value": -0.183},
      {"measurement": "MIC of inhibitor", "setting": "[2]", "value": 4, "unit": "µg/mL"},
      {"measurement": "MIC of inhibitor", "setting": "[3]", "value": 32, "unit": "µg/mL"},
      {"measurement": "MIC of inhibitor", "setting": "[4]", "value": 32, "unit": "µg/mL"},
      {"measurement": "MIC of inhibitor", "setting": "[5]", "value": 32, "unit": "µg/mL"}
    ]}
  ]
}
